The values below come from patent US20240417387A1, “SULFONYLPIPERAZINYL COMPOUNDS FOR TREATMENT OF BACTERIAL INFECTIONS” (Hoffmann-La Roche Inc., priority 2021, published 2024).

Values after ≈ are worked out from the molar mass of the structure shown.

Data set [1] concerns the target Escherichia coli UDP-2,3-diacylglucosamine hydrolase (LpxH) (Escherichia coli (strain K12), UniProt P43341). As to the kind of experiment: Enzymatic IC50 assay of Escherichia coli LpxH (UMP/CMP-Glo luminescence). The class given is biochemical. Particulars: Enzymatic IC50 against Escherichia coli LpxH; read-out: IC50 (converted). On the procedure: The inhibitory potency of compounds of Escherichia coli UDP-2,3-diacylglucosamine hydrolase (LpxH) was determined in an enzymatic assay. UDP-2,3-diacylglucosamine (UDP-DAG) was purified from the Caulobacter crescentus LpxI D225A mutant protein that contained a tightly bound UDP-DAG molecule. The enzyme was diluted using assay buffer containing 50 mM NaCl, 20 mM Tris-HCl pH7.5, 2.5 mM MnCl2, 0.01% Triton X-100.1 mg/mL BSA, and the final concentration is 2 nM. The compounds were diluted by Agilent liquid handler Bravo, the compound's serial dilution dose ranges from 100 μM to 1.7 nM. Then the enzyme and compounds mixture were incubated at room temperature for 10 mins. The enzymatic assay was started by adding UDP-DAG (FAC is 5 μM) and incubated for 20 mins at room temperature. The plate was then heated to 95° C. for 15 mins on a water batch to stop the reaction. The hydrolysis of UDP-DAG by LpxH yielded 2,3-diacylglucosamine 1-phosphate (lipid X) and UMP, which was converted to ATP and quantified by the luciferase reaction using the UMP/CMP-Glo™ Glycosyltransferase Assay kit from Promega. The compound's inhibitory effect of LpxH is determined by measuring the light change using a luminometer (Envision).

Data set [2] is described as follows: Human microsome stability assay. The data set is classed as in vitro ADME. On the procedure:
The human microsomal stability assay is used for early assessment of metabolic stability of a test compound in human liver microsomes.
Human liver microsomes (Cat.NO.: 452117, Corning, USA) were preincubated with test compound for 10 minutes at 37° C. in 100 mM potassium phosphate buffer, pH 7.4. The reactions were initiated by adding NADPH regenerating system. The final incubation mixtures contained 1 µM test compound, 0.5 mg/mL liver microsomal protein, 1 mM MgCl2, 1 mM NADP, 1 unit/mL isocitric dehydrogenase and 6 mM isocitric acid in 100 mM potassium phosphate buffer, pH 7.4. After incubation times of 0, 3, 6, 9, 15 and 30 minutes at 37° C., 300 μL of cold acetonitrile (including internal standard) was added to 100 μL incubation mixture to terminate the reaction. Following precipitation and centrifugation, the amount of compound remaining in the samples were determined by LC-MS/MS. Controls of no NADPH regenerating system at zero and 30 minutes were also prepared and analyzed. […] (Human microsome clearance: <7 mL/min/kg: low; 7-16.2 mL/min/kg: medium; >16.2 mL/min/kg: high)

Data set [3] has as its system Klebsiella pneumonia ATCC 43816. As to the kind of experiment: Minimal Inhibitory Concentration (MIC) broth dilution assay, K. pneumonia ATCC 43816. The class given is cell-based. As to conditions: CAMHB; for MIC: Klebsiella pneumoniae, ATCC43816, 20 hours at 35° C., read-out: MIC K. p ATCC 43816. On the procedure: (§1) The antibacterial activity of molecules was evaluated against the commonly used quality control strain Escherichia coli BW 25113, Escherichia coli ATCC 25922 and the rifampin-resistant mutant strain Klebsiella pneumonia ATCC 43816. Escherichia co/i BW 25113 was obtained from the Coli Genetic Stock Center (CGSC) (strain 7636). Both Escherichia coli ATCC 25922 and Klebsiella pneumonia ATCC 43816 were originally derived from human clinical samples and are available from ATCC (American Type Culture Collection). The in vitro potency of compounds to inhibit Escherichia coli (BW 25113, ATCC 25922) and Klebsiella pneumonia (ATCC 43816) growth was assessed by the MIC (Minimal Inhibitory Concentration) broth dilution method. Specifically compound dilutions were prepared from 10 mM DMSO stock solutions as follows: i) serial 2-fold dilution in 20 μL DMSO were prepared in a master plate (Greiner, Cat No: 651201), ii) 180 μL sterile distilled water was added to each aliquot and iii) 10 μL diluted compounds were transferred into a new assay plate (Costar, 3599).
(§2) Vials of each test microorganisms were maintained frozen in the vapor phase of a liquid nitrogen freezer. Single-use frozen vials of the three strains Escherichia coli BW 25113, Escherichia coli ATCC 25922 (KWTKSTTK, 0335K) and Klebsiella pneumonia ATCC 43816, with predetermined CFU/mL, were taken out from the freezer, thawed at room temperature, and diluted in Cation-Adjusted Mueller Hinton Broth (CAMVIHB) to achieve a final inoculum of 5×10^5 CFU/mL. 90 μL bacteria containing broth was dispensed to the assay plate containing the pre-dispensed compound dilutions and mixed by pipetting 5 times.
(§3) Then the assay plates were incubated for 20 hours at 35° C. in ambient air. Following incubation, the MIC […], the lowest concentration of drug that inhibits visible growth of the microorganism was read with the help of a magnification mirror and recorded.

The test system of data set [4] is Escherichia coli ATCC 25922. Nature of the data set: Minimal Inhibitory Concentration (MIC) broth dilution assay, E. coli ATCC 25922. The data set is classed as cell-based. As to conditions: for MIC: Escherichia coli, ATCC25922, 20 h, read-out: MIC E. coli ATCC 25922. On the procedure:
as §1, §2, §3

Data set [5] has as its system Escherichia coli BW 25113. As to the kind of experiment: Minimal Inhibitory Concentration (MIC) broth dilution assay, E. coli BW 25113. The class given is cell-based. As to conditions: CAMHB; for MIC: Escherichia coli, BW25113, 20 hours at 35° C., read-out: MIC E. coli K-12 BW 25113. On the procedure: as §1, §2, §3
Setting [6] is: human liver microsomes 0.5 mg/mL, 37° C., pH 7.4, NADPH regenerating system.

Escherichia coli UDP-2,3-diacylglucosamine hydrolase (LpxH), sequence (P43341 whole entry): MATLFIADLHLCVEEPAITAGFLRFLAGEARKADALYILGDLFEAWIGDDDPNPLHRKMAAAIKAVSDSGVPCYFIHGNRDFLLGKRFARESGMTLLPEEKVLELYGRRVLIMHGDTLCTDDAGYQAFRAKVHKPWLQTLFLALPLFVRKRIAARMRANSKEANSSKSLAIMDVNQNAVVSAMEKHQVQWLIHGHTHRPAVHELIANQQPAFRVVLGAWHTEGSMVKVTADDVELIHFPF

For the molecule `N[C@@H]1CC(=O)N(c2ccc(S(=O)(=O)N3CCN(c4cc(C(F)(F)c5cnc(C(=O)NCCN6CCOCC6)cn5)cc(Cl)n4)CC3)cc2)C1` [Example 025, 5-[[2-chloro-6-[4-[4-[(4R)-4-amino-2-oxo-pyrrolidin-1-yl]phenyl]sulfonylpiperazin-1-yl]-4-pyridyl]-difluoro-methyl]-N-(2-morpholinoethyl)pyrazine-2-carboxamide], the IC50 in data set [1] is less than 2.78 nM.

Turning to `Cc1cc(C(F)(F)[C@H]2CC[C@H](C(=O)NCCCN)CC2)nc(N2CCN(S(=O)(=O)c3ccc(N4C[C@H](N)CC4=O)cc3)CC2)n1` [Example 054, Trans-N-(3-aminopropyl)-4-[difluoro-[6-methyl-2-[4-[4-[(4R)-4-amino-2-oxo-pyrrolidin-1-yl]phenyl]sulfonylpiperazin-1-yl]pyrimidin-4-yl]methyl]cyclohexanecarboxamide], the half-inhibitory concentration (IC50) in data set [1] is 37 nM.

For the molecule `NC(=O)CNC(=O)[C@H]1CC[C@@H](C(F)(F)c2cc(Cl)nc(N3CCN(S(=O)(=O)c4ccc(N5C[C@H](N)CC5=O)cc4)CC3)c2)CC1` [Example 063, Cis-N-(2-amino-2-oxo-ethyl)-4-[[2-chloro-6-[4-[4-[(4R)-4-amino-2-oxo-pyrrolidin-1-yl]phenyl]sulfonylpiperazin-1-y1]-4-pyridyl]-difluoro-methyl]cyclohexanecarboxamide], the IC50 in data set [1] is 5.99 nM.

On to `NCC(=O)N[C@H]1CC[C@@H](NC(=O)[C@H]2CC[C@H](C(F)(F)c3cc(Cl)nc(N4CCN(S(=O)(=O)c5ccc(N6C[C@H](N)CC6=O)cc5)CC4)c3)CC2)C1` [Example 079, Trans-N-[(1R,3S)-3-[(2-aminoacetyl)amino]cyclopentyl]-4-[[2-[4-[4-[(4R)-4-amino-2-oxo-pyrrolidin-1-yl]phenyl]sulfonylpiperazin-1-yl]-6-chloro-4-pyridyl]-difluoro-methyl]cyclohexanecarboxamide], for which the “Clearance of Human microsome” value in data set [2] (setting [6]) is reported as 11.16 mL/min/kg. The figures for the MIC in data set [3], in data set [4] and in data set [5] were 0.85 µg/mL (≈ 1.13 µM), 3.4 µg/mL (≈ 4.53 µM) and 3.4 µg/mL (≈ 4.53 µM), respectively.

As to `N[C@@H]1CC(=O)N(c2ccc(S(=O)(=O)N3CCN(c4cc(C(F)(F)[C@H]5CC[C@H](C(=O)N[C@H]6CCC(N7C[C@H](N)C[C@H](N)C7)C6)CC5)cc(Cl)n4)CC3)cc2)C1` (stereo partly drawn) [Example 081, Trans-4-[[2-chloro-6-[4-[4-[(4R)-4-amino-2-oxo-pyrrolidin-1-yl]phenyl]sulfonylpiperazin-1-yl]-4-pyridyl]-difluoro-methyl]-N-[(1S)-3-[cis-3,5-diamino-1-piperidyl]cyclopentyl]cyclohexanecarboxamide], the “Clearance of Human microsome” value in data set [2] (setting [6]) is given as 6.71 mL/min/kg. The MIC in data set [3], in data set [4] and in data set [5] was 0.65 µg/mL (≈ 0.82 µM) in each case.

With `C[N+](C)(CCCN)CCCNC(=O)[C@H]1CC[C@H](C(F)(F)c2cc(Cl)nc(N3CCN(S(=O)(=O)c4ccc(N5C[C@H](N)CC5=O)cc4)CC3)c2)CC1` [Example 084, Trans-3-[[4-[[2-[4-[4-[(4R)-4-amino-2-oxo-pyrrolidin-1-yl]phenyl]sulfonylpiperazin-1-yl]-6-chloro-4-pyridyl]-difluoro-methyl]cyclohexanecarbonyl]amino]propyl-(3-aminopropyl)-dimethyl-ammonium], the “Clearance of Human microsome” value in data set [2] (setting [6]) is given as 9.7 mL/min/kg. In addition, the MIC was determined as 0.81 µg/mL in data set [3], 0.48 µg/mL in data set [4] and 0.48 µg/mL in data set [5].

As to “Trans-N-[(1R,3S)-3-aminocyclopentyl]-4-[2-[4-[4-[(4R)-4-amino-2-oxo-pyrrolidin-1-yl]phenyl]sulfonylpiperazin-1-yl]-6-chloro-4-pyridyl]-difluoro-methyl]cyclohexanecarboxamide [Example 066]”, the “Clearance of Human microsome” value in data set [2] (human, microsomes, pH 7.4) was 6.15 mL/min/kg. Besides, the “MIC K. p ATCC 43816” value in data set [3] (20 hours at 35° C.) was 0.59 µg/mL. Further, in data set [4] (broth dilution, 20 hours at 35° C., CAMHB), the “MIC E. coli K-12 ATCC 25922” value stood at 0.63 µg/mL. Besides, in data set [5] (20 hours at 35° C.), the “MIC E. coli K-12 BW 25113” value came out at 1.3 µg/mL.
